Kd data for one substance are collected here from patent US7494992B2, “Antiparasitic terpene alkaloids” (Pfizer Inc., priority 2003, dated 2009).

The experiment addresses fly head P2 membranes. As to the kind of experiment: radiometric assay: displacement of 3H-dihydro-CJ-12662 from fly head P2 membranes (Ki; also single-concentration high throughput screen, % inhibition). On the set-up: species or system Lucilia sericata. To be noted: radioligand binding to fly head P2 membranes; value used to calculate Ki values. The method, then: A further aspect of the invention is a novel binding assay which is used to assess the potential antiparasitic activity of these compounds by measuring how tightly they bind to membranes purified from parasite homogenates. The affinity is calculated according to how readily the compounds of the present invention displace a radiolabeled, reduced analogue of (1S,2R,4aS,5R,8R,8aR)-2-(acetyloxy)-8a-hydroxy-3,8-dimethyl-5-(1-methylethenyl)-1,2,4a,5,6,7,8,8a-octahydronaphthalen-1-yl(2S,3aR,9bR)-6-chloro-9b-hydroxy-5-methyl-1,2,3,3a,5,9b-hexahydropyrrolo[2,3-c][2,1]benzoxazine-2-carboxylate from these membranes.
The in vitro assay for measurement of compounds which displace ^3H-dihydro-(1S,2R,4aS,5R,8R,8aR)-2-(acetyloxy)-8a-hydroxy-3,8-dimethyl-5-(1-methylethenyl)-1,2,4a,5,6,7,8,8a-octahydronaphthalen-1-yl(2S,3aR,9bR)-6-chloro-9b-hydroxy-5-methyl-1,2,3,3a,5,9b-hexahydropyrrolo[2,3-c][2,1]benzoxazine-2-carboxylate from fly head P2 membranes represents another aspect of the invention and was performed as follows. […]

One may read the Kd as the free concentration of one partner at which half of the binding sites on the other are occupied at equilibrium, for simple one-to-one binding.

Turning to “^3H-dihydro-(1S,2R,4aS,5R,8R,8aR)-2-(acetyloxy)-8a-hydroxy-3,8-dimethyl-5-(1-methylethenyl)-1,2,4a,5,6,7,8,8a-octahydronaphthalen-1-yl(2S,3aR,9bR)-6-chloro-9b-hydroxy-5-methyl-1,2,3,3a,5,9b-hexahydropyrrolo[2,3-c][2,1]benzoxazine-2-carboxylate [^3H-dihydro-CJ-12662]”, the Kd was 7 nM.
